Measurements taken from a compilation of properties of binary mixtures (doi:10.1016/j.molliq.2020.113380).

Assay: xn = mol fraction of the nth substance listed
Conditions: 86 kPa, x2 = 0.5

O=C(O)COCC(=O)O + CCCC[N+](CCCC)(CCCC)CCCC.O=S(=O)([O-])O
Conditions	electrical conductivity [S/m]	speed of sound [m/s]	viscosity [mPa·s]
293.15 K	0.0002	1820.2	–
298.15 K	0.0004	1770.7	–
303.15 K	0.0007	1720.3	38300
308.15 K	0.0013	1690.7	21200
313.15 K	0.0022	1661.5	12020
318.15 K	0.0035	1630.3	7750
323.15 K	0.0054	1603.6	5450
328.15 K	0.0081	1581	3520
333.15 K	0.0117	1560.2	2500
338.15 K	–	–	1750
343.15 K	–	–	1250
